Reference: patent publication US7202278B2, “4-fluoro-N-indan-2-yl benzamide and its use as a pharmaceutical” (Sanofi-Aventis Deutschland GmbH, priority 2001, dated 2007)

Columns and labels:
eNOS promoter = experiment: Activation of eNOS transcription (eNOS promoter-luciferase reporter); assay type: cell-based, human; settings: 18 h incubation
Description: Activation of eNOS transcription was measured as described in detail in Li et al. “Activation of protein kinase C alpha and/or epsilon enhances transcription of the human endothelial nitric oxide synthase gene”, Mol. Pharmacol. 1998, 53: 630–637.
Briefly, a 3.5 kB long fragment 5′ of the starting codon of the eNOS gene was cloned, sequenced and cloned in firefly luciferase expression plasmids to monitor activation of the eNOS promoter by reporter gene activity. A human endothelial cell line stable transfected and expressing this promoter-reporter construct was used for compound testing. Cells were incubated for 18 h with the compound (I).
Prior to incubation of the cells, the compound (I) was dissolved in sterile DMSO. A final concentration of 0.5% DMSO in complete medium was obtained. Induction of reporter gene expression in these cells was measured using a standard luciferase assay system (Promega, Cat. No E150) according to the manufacturer's instructions. Luciferase induction in cells incubated with compound (I) were compared to those incubated with solvent alone. The ratio of both activities (transcription induction ratio, TIR) was plotted as a function of compound concentration. […] EC50 values of transcription induction ratios as a function of compound concentration were determined graphically.

eNOS protein expression = experiment: eNOS protein detection in HUVEC by quantitative Western blotting; assay type: cell-based, human; settings: 18 h incubation
Description: The effect of the compound (I) on eNOS-transcription was confirmed in a second assay based on eNOS protein detection. Primary human umbilical vein cord endothelial cells (HUVEC) were isolated and cultivated according to standard procedures. Confluent cells were incubated with compound (I) for 18 h and the effect on eNOS protein expression determined by a quantitative Western blotting procedure. After incubation of compound (I), HUVEC were lysed in ice-cold lysis buffer containing 10 mM Tris-HCl, pH 8.0, 1% SDS and protease inhibitors. The lysate was subjected to a standard denaturating polyacrylamid gel electropheresis and blotted to nitrocellulose membranes. Using a specific primary monoclonal antibody (Transduction Laboratories, UK) and alkaline phosphatase labelled secondary antibody (Jackson Labs), a specific eNOS protein band was visualized and quantified based on a chemifluorescence detection method.

ApoE deficient mice [1] = experiment: Anti-hypertensive effect in ApoE knockout mice (tail-cuff); assay type: in vivo; settings: 30 mg/kg/d p.o. in chow, after 4 months treatment, placebo 115±2 mmHg, p<0.05
From the text: (§1) ApoE and eNOS deficient mice (C57BL/6J background, Jackson Laboratory, Bar Harbor, Me.) were used. All animals were 10–12 weeks of age and weighed 22 to 28 g. Three days before surgery, mice were divided into 4 groups (apoE control, n=10–12; apoE with compound (I), n=10–12; eNOS control, n=10–12; eNOS with compound (I), n=10–12) and received either a standard rodent chow (containing 4% fat and 0.001% cholesterol; in the following designated as placebo group) or a standard rodent chow+compound (I) (10 or 30 mg/kg/d p.o.).
(§2) Blood-pressure was determined in conscious mice using a computerized tail-cuff system.

eNOS deficient mice [2] = experiment: Blood pressure in eNOS deficient mice (tail-cuff); assay type: in vivo; settings: similar dosing, after 4 weeks treatment
From the text: as §1, §2

ApoE deficient mice [3] = experiment: Inhibition of neointima formation and atherogenesis (femoral artery cuff), ApoE deficient mice; assay type: in vivo
From the text: as §1
After 3 days treatment of ApoE deficient mice with compound (I), (10 mg/kg/d pressed in chow), animals were anesthetized with an intraperitoneal injection of pentobarbital (60 mg/kg) followed by an intramuscular injection of xylazin (2 mg/kg) and a cuff was placed around the femoral artery as described in Moroi et at. (J Clin Invest. 101:1225–32, 1998). Briefly, the left femoral artery was dissected. A non-occlusive 2.0 mm polyethylene cuff made of PE-50 tubing (inner diameter 0.56 mm, outer diameter 0.965 mm, Becton Dickinson, Mountain View, Calif.) was placed around the artery and tied in place with two 7–0 sutures. The right femoral artery was isolated from the surrounding tissues but a cuff was not placed. Treatment with compound (I) was continued for 14 days after surgery. Then the animals were sacrificed. The aortas were taken for determination of vascular eNOS expressions by quantitative western blotting. Both femoral arteries were harvested, fixed in formalin and embedded in paraffin. 20 cross sections (10 μm) were cut from the cuffed portion of the left femoral artery and from the corresponding segment of the right artery. Sections were subjected to standard hematoxylin and eosin staining. Morphometric analyses were performed using an image analysis computer program (LeicaQWin, Leica Imaging Systems, Cambridge, GB). For each cross section the area of the lumen, the neointima and the media were determined. […] The ratio between the area of the neointima and the area of the media was expressed as the neointima/media ratio.

eNOS deficient mice [4] = experiment: Femoral artery cuff model in eNOS deficient mice; assay type: in vivo; settings: similar setup
From the text: as §1
After 3 days treatment of ApoE deficient mice with compound (I), (10 mg/kg/d pressed in chow), animals were anesthetized with an intraperitoneal injection of pentobarbital (60 mg/kg) followed by an intramuscular injection of xylazin (2 mg/kg) and a cuff was placed around the femoral artery as described in Moroi et at. (J Clin Invest. 101:1225–32, 1998). Briefly, the left femoral artery was dissected. […] The aortas were taken for determination of vascular eNOS expressions by quantitative western blotting. […] For each cross section the area of the lumen, the neointima and the media were determined. […] The ratio between the area of the neointima and the area of the media was expressed as the neointima/media ratio.

ApoE deficient mice [5] = experiment: Prevention of atherosclerotic plaque formation in chronic treatment; assay type: in vivo
From the text: as §1
ApoE deficient mice were treated for 16 weeks with compound (I) pressed in chow and finally sacrificed. Aortas were removed from each mouse, fixed in formalin and embedded in paraffin. Plaque formation was measured via lipid lesions formation in the aortas (from aortic arch to diaphragm) and was analyzed by oil red O staining. For quantifying the effect of the respective compound on vascular eNOS expression the […] were used in this experiment.

ApoE deficient mice [6] = experiment: Improvement of coronary function in diseased ApoE deficient mice (isolated working heart); assay type: in vivo
Description: Old Male wild-type C57BL/6J mice (Charles River Wiga GmbH, Sulzfeld), and apolE deficient mice (C57BL/6J background, Jackson Laboratory, Bar Harbor, Me.) 6 month of age and weighing 28 to 36 g were used in the experiments. Mice were divided into 3 groups (C57BL/6, n=8; apoE control, n=8; apoE with compound (I), n=8) and received for 8 weeks either a standard rodent chow (containing 4% fat and 0.001% cholesterol) or a standard rodent chow+compound (I) (30 mg/kg/d p.o.).
Mice were anesthetized with sodium pentobarbitone (100 mg/kg i.p.), and the hearts were rapidly excised and placed into ice-cold perfusion buffer. The aorta was cannulated and connected to a perfusion apparatus (HUGO SACHS ELECTRONICS, Freiburg, Germany) which was started immediately at a constant perfusion pressure of 60 mm Hg. Hearts were perfused in a retrograde fashion with modified Krebs bicarbonate buffer, equilibrated with 95% O2 and 5% CO2 and maintained at 37.5° C.
A beveled small tube (PE 50) was passed through a pulmonary vein into the left ventricle and pulled through the ventricular wall, anchored in the apex by a fluted end, and connected to a tip-micromanometer (Millar 1.4 French). The left atrium was cannulated through the same pulmonary vein and the heart switched to the working mode with a constant preload pressure of 10 mm Hg and an afterload pressure of 60 mm Hg. Aortic outflow and atrial inflow were continuously measured using ultrasonic flow probes (HSE/Transonic Systems Inc.). Coronary flow was calculated as the difference between atrial flow and aortic flow. All hemodynamic data were digitized at a sampling rate of 1000·Hz and recorded with a PC using specialized software (HEM, Notocord).
Hearts were allowed to stabilize for 30 min. All functional hemodynamic data were measured during steady state, and during volume- and pressure loading.
Left ventricular function curves were constructed by varying pre-load pressure. For acquisition of preload curves, afterload was set at 60 mm Hg and preload was adjusted in 5 mm Hg steps over a range of 5 to 25 mm Hg. […]

[7] = isolated hearts of ApoE deficient mice, 30 mg/kg/d p.o., 8 weeks

O=C(NC1Cc2ccccc2C1)c1ccc(F)cc1 [compound (I), 4-fluoro-N-indan-2-yl benzamide]
EC50 (eNOS promoter; human endothelial cell line stably transfected with eNOS promoter-luciferase construct, read-out: EC50 of transcription induction ratio): 800 nM | TIR(max) (maximum transcription induction ratio) (eNOS promoter; human endothelial cell line, ratio versus solvent alone): 4.10 | effect on eNOS protein expression (eNOS protein expression): confirmed | blood pressure (ApoE deficient mice [1]): 92±5 mmHg | blood pressure reduction (eNOS deficient mice [2]): No blood pressure reduction could be observed | reduction of neo-intima formation (factor) (ApoE deficient mice [3]; 10 mg/kg/d in chow, 3 days before to 14 days after cuff surgery): 2 | neointima to media ratio (ApoE deficient mice [3]; 10 mg/kg/d in chow, cuffed femoral artery, placebo 0.39±0.07): 0.170±0.04 | vascular eNOS expression enhanced by a factor (ApoE deficient mice [3]; 10 mg/kg/d, aortas, quantitative western blotting): 2.1 | effect on neointima formation / eNOS expression (eNOS deficient mice [4]): No effect | overall plaque size in % of total surface (ApoE deficient mice [5]; 16 weeks treatment in chow, aortas, oil red O staining, placebo 13.3±2.6): 5.2±1% | vascular eNOS expression up-regulation (ApoE deficient mice [5]; 16 weeks treatment, femoral arteries): 1.75 fold | coronary flow (ApoE deficient mice [6]; isolated hearts of ApoE deficient mice treated 8 weeks with 30 mg/kg/d p.o., wildtype 4.95 ml/min): 5 mL/min | incidence of ventricular arrhythmias (ApoE deficient mice [6]; [7]): reduced | pre-load dependent coronary flow (ApoE deficient mice [6]; [7]): improved
